Source: ChEMBL document CHEMBL3991601, “The target landscape of clinical kinase drugs” (Science, 2017)
The source made the active and inactive calls. Rule as the data show it, for most assays here: actives have a measured Kd and inactives only a lower limit.

Assays:
Pyridoxal kinase = target: T1, Pyridoxal kinase (Homo sapiens, UniProt O00764)
T1 sequence (O00764 whole entry): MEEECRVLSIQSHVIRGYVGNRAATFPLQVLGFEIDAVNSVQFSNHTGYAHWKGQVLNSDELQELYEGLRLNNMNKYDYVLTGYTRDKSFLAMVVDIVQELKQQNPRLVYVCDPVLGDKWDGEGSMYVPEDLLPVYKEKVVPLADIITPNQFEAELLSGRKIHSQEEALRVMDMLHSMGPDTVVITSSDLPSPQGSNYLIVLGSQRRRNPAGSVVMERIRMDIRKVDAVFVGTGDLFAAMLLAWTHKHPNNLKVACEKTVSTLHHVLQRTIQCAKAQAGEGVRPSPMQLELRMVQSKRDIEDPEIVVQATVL

ADP/ATP translocase 3 = target: T2, ADP/ATP translocase 3 (Homo sapiens, UniProt P12236)
T2 sequence (P12236 whole entry): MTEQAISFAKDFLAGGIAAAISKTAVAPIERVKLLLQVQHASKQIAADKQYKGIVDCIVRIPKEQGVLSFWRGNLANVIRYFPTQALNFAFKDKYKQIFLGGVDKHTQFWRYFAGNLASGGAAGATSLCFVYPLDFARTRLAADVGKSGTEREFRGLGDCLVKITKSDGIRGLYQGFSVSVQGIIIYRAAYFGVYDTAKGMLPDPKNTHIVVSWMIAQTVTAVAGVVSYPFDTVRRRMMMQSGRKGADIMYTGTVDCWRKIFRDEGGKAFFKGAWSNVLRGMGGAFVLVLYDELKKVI

[1] = target: Serine/threonine-protein kinase 26 (Homo sapiens, UniProt Q9P289)
[2] = target: T3, Serine/threonine-protein kinase 4 (Homo sapiens, UniProt Q13043)
T3 sequence (Q13043 whole entry): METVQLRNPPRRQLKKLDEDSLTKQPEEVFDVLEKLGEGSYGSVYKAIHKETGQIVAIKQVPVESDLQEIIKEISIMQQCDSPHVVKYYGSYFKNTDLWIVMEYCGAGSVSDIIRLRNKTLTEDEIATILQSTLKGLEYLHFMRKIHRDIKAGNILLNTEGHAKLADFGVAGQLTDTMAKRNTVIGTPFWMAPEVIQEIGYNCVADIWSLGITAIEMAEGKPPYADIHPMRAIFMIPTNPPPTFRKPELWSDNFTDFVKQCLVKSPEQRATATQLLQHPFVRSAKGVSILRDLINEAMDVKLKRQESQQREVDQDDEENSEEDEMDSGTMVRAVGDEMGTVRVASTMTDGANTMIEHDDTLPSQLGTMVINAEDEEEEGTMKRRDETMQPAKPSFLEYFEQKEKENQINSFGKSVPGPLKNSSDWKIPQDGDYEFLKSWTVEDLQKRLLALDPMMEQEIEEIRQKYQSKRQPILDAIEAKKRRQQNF

[3] = target: RAC-gamma serine/threonine-protein kinase (Homo sapiens, UniProt Q9Y243)
[4] = target: T4, Serine/threonine-protein kinase Chk1 (Homo sapiens, UniProt O14757)
T4 sequence (O14757 whole entry): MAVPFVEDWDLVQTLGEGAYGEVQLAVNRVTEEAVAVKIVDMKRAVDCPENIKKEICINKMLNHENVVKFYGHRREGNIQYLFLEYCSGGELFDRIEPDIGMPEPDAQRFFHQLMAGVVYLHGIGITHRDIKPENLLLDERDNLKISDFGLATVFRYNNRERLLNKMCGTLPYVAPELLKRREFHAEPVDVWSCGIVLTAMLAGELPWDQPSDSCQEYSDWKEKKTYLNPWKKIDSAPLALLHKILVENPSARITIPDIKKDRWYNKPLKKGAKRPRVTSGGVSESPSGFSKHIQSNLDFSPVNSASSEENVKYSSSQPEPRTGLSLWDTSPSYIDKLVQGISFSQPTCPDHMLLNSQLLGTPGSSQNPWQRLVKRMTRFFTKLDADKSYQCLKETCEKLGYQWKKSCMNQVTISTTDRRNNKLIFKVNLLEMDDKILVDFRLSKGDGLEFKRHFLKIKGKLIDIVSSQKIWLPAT

Ephrin type-A receptor 4 = Ephrin type-A receptor 4 (Homo sapiens, UniProt P54764)
[5] = target: Protein kinase C delta type (Homo sapiens, UniProt Q05655)
[6] = target: Protein kinase C theta type (Homo sapiens, UniProt Q04759)
[7] = target: T5, Serine/threonine-protein kinase D3 (Homo sapiens, UniProt O94806)
T5 sequence (O94806 whole entry): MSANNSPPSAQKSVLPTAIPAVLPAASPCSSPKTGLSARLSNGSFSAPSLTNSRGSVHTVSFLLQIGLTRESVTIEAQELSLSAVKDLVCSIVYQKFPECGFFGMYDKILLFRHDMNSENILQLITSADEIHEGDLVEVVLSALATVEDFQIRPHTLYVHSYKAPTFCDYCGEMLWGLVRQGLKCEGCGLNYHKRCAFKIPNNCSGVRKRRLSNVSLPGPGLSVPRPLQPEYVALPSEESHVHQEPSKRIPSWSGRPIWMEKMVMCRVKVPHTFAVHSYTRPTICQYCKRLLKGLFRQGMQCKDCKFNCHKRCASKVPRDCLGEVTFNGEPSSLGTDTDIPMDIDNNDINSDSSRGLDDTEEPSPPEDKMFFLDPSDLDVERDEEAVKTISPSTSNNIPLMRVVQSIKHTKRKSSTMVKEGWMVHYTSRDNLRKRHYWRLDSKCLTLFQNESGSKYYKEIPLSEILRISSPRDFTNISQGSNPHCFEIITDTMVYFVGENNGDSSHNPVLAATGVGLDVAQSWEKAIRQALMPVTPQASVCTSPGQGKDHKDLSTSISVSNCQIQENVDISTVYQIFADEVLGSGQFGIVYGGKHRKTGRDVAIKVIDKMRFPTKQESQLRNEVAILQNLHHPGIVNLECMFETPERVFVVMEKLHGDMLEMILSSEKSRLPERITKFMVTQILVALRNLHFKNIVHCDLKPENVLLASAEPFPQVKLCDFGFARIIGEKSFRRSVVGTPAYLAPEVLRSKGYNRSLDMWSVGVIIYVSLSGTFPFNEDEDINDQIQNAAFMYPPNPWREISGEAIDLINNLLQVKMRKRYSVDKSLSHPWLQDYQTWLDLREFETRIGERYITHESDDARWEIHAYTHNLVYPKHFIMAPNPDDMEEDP
Also: in the data inactive means no Kd found up to 30 µM.

Chain of Protein kinase C delta type (Q05655 whole entry): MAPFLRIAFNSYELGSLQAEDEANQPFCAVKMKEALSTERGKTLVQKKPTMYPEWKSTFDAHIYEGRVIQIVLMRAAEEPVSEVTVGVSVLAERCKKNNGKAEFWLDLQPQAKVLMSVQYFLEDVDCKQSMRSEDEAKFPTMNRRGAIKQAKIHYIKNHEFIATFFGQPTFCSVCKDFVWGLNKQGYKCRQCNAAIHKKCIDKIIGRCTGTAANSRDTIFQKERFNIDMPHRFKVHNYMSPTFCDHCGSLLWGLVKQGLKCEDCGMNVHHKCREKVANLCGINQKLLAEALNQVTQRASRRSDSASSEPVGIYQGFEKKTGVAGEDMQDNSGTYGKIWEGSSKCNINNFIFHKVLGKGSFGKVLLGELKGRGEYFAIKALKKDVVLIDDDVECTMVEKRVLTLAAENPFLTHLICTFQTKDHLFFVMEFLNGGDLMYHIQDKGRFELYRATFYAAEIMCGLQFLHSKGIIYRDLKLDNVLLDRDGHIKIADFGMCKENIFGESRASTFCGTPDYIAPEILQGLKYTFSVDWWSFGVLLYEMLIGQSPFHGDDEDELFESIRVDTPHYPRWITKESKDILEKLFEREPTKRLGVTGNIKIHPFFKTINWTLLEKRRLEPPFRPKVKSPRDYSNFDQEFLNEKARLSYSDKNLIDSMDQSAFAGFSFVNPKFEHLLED
Chain of Serine/threonine-protein kinase 26 (Q9P289 whole entry): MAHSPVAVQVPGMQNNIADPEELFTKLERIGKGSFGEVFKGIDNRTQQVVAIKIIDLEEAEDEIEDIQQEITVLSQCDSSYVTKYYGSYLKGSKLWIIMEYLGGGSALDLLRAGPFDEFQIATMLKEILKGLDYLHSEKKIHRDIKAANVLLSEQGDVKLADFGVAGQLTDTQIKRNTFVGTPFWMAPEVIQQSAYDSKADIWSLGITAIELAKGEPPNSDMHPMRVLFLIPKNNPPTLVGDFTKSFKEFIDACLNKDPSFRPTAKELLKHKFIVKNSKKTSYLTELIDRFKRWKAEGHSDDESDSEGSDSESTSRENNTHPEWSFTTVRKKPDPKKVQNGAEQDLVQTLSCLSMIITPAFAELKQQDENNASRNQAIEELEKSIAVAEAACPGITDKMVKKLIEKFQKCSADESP
Chain of Protein kinase C theta type (Q04759 whole entry): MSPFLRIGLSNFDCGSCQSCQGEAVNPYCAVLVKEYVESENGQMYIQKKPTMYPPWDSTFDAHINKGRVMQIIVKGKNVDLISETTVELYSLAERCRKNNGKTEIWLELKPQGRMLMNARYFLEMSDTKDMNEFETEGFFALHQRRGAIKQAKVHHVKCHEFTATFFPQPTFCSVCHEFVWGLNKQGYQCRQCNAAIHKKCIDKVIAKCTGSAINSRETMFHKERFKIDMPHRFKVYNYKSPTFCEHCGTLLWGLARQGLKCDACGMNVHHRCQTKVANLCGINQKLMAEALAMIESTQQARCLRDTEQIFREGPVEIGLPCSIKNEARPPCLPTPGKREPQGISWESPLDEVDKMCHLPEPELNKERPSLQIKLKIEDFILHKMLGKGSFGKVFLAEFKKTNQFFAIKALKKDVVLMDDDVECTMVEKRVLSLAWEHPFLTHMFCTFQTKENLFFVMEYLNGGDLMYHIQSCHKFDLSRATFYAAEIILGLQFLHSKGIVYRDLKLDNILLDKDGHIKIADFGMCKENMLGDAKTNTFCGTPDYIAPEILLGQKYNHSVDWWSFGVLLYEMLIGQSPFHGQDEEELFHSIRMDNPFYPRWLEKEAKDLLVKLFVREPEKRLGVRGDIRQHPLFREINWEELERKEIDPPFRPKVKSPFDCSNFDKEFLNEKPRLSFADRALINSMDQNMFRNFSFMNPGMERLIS
Chain of Ephrin type-A receptor 4 (P54764 whole entry): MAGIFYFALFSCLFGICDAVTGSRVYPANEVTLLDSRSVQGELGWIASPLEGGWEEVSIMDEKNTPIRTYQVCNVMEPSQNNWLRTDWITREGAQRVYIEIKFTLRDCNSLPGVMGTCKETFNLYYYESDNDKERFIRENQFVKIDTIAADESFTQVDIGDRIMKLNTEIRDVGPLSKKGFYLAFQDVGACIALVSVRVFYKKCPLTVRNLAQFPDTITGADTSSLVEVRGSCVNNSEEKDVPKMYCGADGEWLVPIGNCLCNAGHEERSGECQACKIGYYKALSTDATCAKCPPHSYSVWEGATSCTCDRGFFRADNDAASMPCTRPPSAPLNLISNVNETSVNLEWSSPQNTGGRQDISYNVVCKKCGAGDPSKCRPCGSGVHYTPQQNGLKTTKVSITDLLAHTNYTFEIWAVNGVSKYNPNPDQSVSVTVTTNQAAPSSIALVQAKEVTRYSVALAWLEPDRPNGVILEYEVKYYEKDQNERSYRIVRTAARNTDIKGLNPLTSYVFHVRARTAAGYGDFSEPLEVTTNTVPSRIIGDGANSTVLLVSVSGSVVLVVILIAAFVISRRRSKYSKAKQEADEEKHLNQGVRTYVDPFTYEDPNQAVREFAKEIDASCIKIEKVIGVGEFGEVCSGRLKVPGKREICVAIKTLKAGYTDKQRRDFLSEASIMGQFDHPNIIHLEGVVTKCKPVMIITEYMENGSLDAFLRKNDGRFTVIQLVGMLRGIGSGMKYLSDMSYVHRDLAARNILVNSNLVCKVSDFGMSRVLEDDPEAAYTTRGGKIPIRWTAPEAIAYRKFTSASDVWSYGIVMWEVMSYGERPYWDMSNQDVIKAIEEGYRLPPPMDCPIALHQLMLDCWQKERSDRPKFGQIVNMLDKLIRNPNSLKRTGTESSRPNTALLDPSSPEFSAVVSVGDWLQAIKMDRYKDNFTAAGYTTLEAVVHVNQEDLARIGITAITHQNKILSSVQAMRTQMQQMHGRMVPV
Chain of RAC-gamma serine/threonine-protein kinase (Q9Y243 whole entry): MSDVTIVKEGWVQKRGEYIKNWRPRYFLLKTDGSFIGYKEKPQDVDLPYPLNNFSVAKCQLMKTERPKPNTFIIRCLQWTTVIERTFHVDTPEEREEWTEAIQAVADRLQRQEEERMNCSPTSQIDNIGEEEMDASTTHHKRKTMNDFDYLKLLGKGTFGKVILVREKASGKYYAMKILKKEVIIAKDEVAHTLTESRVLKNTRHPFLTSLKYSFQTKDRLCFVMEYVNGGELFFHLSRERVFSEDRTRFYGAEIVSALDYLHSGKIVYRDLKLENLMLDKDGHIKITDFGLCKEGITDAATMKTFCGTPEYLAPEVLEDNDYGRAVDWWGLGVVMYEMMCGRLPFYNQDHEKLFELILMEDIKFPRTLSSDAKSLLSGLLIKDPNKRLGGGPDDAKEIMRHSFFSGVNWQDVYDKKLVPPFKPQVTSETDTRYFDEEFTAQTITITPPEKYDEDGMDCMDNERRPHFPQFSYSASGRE

Row | Compound | Kd (Pyridoxal kinase) | Kd (ADP/ATP translocase 3) | Kd [1] | Kd [2] | Kd [3] | Kd [4] | Kd (Ephrin type-A receptor 4) | Kd [5] | Kd [6] | Kd [7]
1 | COc1cc(Nc2ncc3c(n2)-c2ccc(Cl)cc2C(c2c(F)cccc2OC)=NC3)ccc1C(=O)O [ALISERTIB] | > 30 µM (inactive) | > 30 µM (inactive) | > 30 µM (inactive) | > 30 µM (inactive) |  |  |  |  |  | 
2 | O=C(Nc1c[nH]nc1-c1nc2cc(CN3CCOCC3)ccc2[nH]1)NC1CC1 [AT-9283] | > 30 µM (inactive) | > 30 µM (inactive) | > 30 µM (inactive) | > 30 µM (inactive) | > 30 µM (inactive) | 0.084 µM (active) | 43.9 µM (active) | > 30 µM (inactive) | > 30 µM (inactive) | 
3 | CNC(=O)c1ccccc1Sc1ccc2c(/C=C/c3ccccn3)n[nH]c2c1 [AXITINIB] | > 30 µM (inactive) | > 30 µM (inactive) |  |  |  |  |  |  |  | 
4 | C#Cc1cccc(Nc2ncnc3cc(OC)c(OCCCCCCC(=O)NO)cc23)c1 [CUDC-101] | > 30 µM (inactive) | > 30 µM (inactive) | > 30 µM (inactive) | > 30 µM (inactive) | > 30 µM (inactive) | > 30 µM (inactive) | > 30 µM (inactive) | > 30 µM (inactive) | > 30 µM (inactive) | > 30 µM (inactive)
5 | CC(C)(C)c1nc(-c2cccc(NS(=O)(=O)c3c(F)cccc3F)c2F)c(-c2ccnc(N)n2)s1 [DABRAFENIB] | > 30 µM (inactive) | > 30 µM (inactive) | > 30 µM (inactive) | > 30 µM (inactive) |  |  | > 30 µM (inactive) | > 30 µM (inactive) |  | 0.12 µM (active)
6 | Cn1cc(C2=C(c3cn(C4CCN(Cc5ccccn5)CC4)c4ccccc34)C(=O)NC2=O)c2ccccc21 [ENZASTAURIN] | > 30 µM (inactive) | > 30 µM (inactive) |  |  |  |  |  |  |  | 
7 | C[C@@H](Oc1cc(-n2cnc3ccc(CN4CCN(C)CC4)cc32)sc1C(N)=O)c1ccccc1C(F)(F)F [GSK-461364] | > 30 µM (inactive) | > 30 µM (inactive) |  |  |  |  |  |  |  | 
8 | CCn1cc(-c2ccnc3[nH]c(-c4cccc(CN(C)C)c4)cc23)c(-c2ccc(NC(=O)N(C)C)cc2)n1 [GSK-1070916] | > 30 µM (inactive) | > 30 µM (inactive) | > 30 µM (inactive) | > 30 µM (inactive) | 3.29 µM (active) | > 30 µM (inactive) | > 30 µM (inactive) | > 30 µM (inactive) | > 30 µM (inactive) | 1.93 µM (active)
9 | Cc1[nH]c(/C=C2\C(=O)Nc3ccccc32)c(C)c1CCC(=O)O [ORANTINIB] | > 30 µM (inactive) | > 30 µM (inactive) | > 30 µM (inactive) |  |  |  | > 30 µM (inactive) |  |  | 
10 | NC(=O)c1c(OCc2c(F)cc(Br)cc2F)nsc1NC(=O)NCCCCN1CCCC1 [OSI-632] | > 30 µM (inactive) | > 30 µM (inactive) | > 30 µM (inactive) | > 30 µM (inactive) |  |  | > 30 µM (inactive) |  |  | 
11 | CCOc1cc2ncc(C#N)c(Nc3ccc(F)c(Cl)c3)c2cc1NC(=O)/C=C/CN(C)C [PELITINIB] | > 30 µM (inactive) | > 30 µM (inactive) | > 30 µM (inactive) |  | > 30 µM (inactive) | > 30 µM (inactive) | > 30 µM (inactive) |  | > 30 µM (inactive) | > 30 µM (inactive)
12 | CC(=O)NCC(=O)N1[C@@H]2CC[C@H]1c1ccc(Nc3ncc(C(F)(F)F)c(NC4CCC4)n3)cc12 [PF-03814735] | > 30 µM (inactive) | > 30 µM (inactive) | > 30 µM (inactive) | 0.828 µM (active) |  |  | > 30 µM (inactive) |  |  | 
13 | CNC(=O)c1cc(Oc2ccc(NC(=O)Nc3cc(C(C)(C)C)nn3-c3ccc4ncccc4c3)c(F)c2)ccn1 [REBASTINIB] | > 30 µM (inactive) | > 30 µM (inactive) | > 30 µM (inactive) |  | > 30 µM (inactive) | > 30 µM (inactive) | > 30 µM (inactive) | > 30 µM (inactive) | > 30 µM (inactive) | > 30 µM (inactive)
14 | O=C(NOCCO)c1cc(CN2OCCCC2=O)c(F)c(F)c1Nc1ccc(I)cc1F [RO-4987655] | > 30 µM (inactive) | > 30 µM (inactive) |  |  |  |  |  |  |  | 
15 | N#CC[C@H](C1CCCC1)n1cc(-c2ncnc3[nH]ccc23)cn1 [RUXOLITINIB] | > 30 µM (inactive) | > 30 µM (inactive) |  |  |  |  |  |  |  | 
